Experimental findings from patent publication US8580965B2, “Substituted sulfonamide compounds” (Gruenenthal GmbH, priority 2006, dated 2013) are described below.

Structures can show the parent of a compound that is named as a salt.

In test [1] the target is T1, human B1R receptor (bradykinin 1 receptor) (Homo sapiens, UniProt P46663).
T1 construct: host or cells: CHO K1 cells (hB1R cells)
T1 sequence (P46663 1-353): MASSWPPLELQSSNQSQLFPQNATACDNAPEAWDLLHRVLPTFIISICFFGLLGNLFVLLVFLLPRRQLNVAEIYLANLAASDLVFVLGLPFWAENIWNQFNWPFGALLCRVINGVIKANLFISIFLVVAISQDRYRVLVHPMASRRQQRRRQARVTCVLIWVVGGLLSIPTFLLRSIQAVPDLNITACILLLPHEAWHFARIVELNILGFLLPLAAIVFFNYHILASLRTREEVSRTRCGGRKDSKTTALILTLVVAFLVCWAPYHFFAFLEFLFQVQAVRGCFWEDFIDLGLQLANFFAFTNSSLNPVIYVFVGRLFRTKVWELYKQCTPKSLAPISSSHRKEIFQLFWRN
Kind of test: FLIPR Ca2+ assay (Fluo-4) on CHO K1 cells stably transfected with the human B1R gene; % activation and % inhibition at 10 μM. Particulars: CHO-K1, test substance 10 μM; CHO K1 hB1R cells; Ca2+ inflow after 0.5 nM Lys-Des-Arg9-bradykinin; read-out: B1R antagonism, human [10 μM] % inhibition. In kind it is cell-based. In outline: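 CHO K1 cells stably expressing human or rat B1R, Fluo-4 loaded, read by FLIPR (peak fluorescence). Compound at 10 µM first gives % activation versus agonist; after 10 min, agonist (human: 0.5 nM Lys-Des-Arg9-bradykinin; rat: 100 nM Des-Arg9-bradykinin) gives % inhibition relative to maximal inhibition.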

The target of test [2] is T2, B1R receptor of the rat (bradykinin 1 receptor) (Rattus norvegicus, UniProt P97583).
T2 construct: host or cells: CHO K1 cells (rB1R cells)
T2 sequence (P97583 1-337): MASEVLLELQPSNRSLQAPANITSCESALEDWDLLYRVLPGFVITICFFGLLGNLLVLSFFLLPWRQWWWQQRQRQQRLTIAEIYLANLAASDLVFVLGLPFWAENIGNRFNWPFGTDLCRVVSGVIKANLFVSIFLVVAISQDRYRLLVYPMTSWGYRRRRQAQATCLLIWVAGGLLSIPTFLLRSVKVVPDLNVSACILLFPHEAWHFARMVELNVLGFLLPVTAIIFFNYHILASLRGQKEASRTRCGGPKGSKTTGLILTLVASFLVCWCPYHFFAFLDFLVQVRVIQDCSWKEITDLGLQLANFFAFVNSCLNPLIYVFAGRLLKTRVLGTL
In words: FLIPR Ca2+ assay (Fluo-4) on CHO K1 cells stably transfected with the B1R gene of the rat; % activation and % inhibition at 10 μM. Type of test: cell-based. Particulars: CHO-K1, test substance 10 μM; CHO K1 rB1R cells; Ca2+ inflow after 100 nM Des-Arg9-bradykinin; read-out: B1R antagonism, rat [10 μM] % inhibition. As for the experimental part: The agonistic or antagonistic action of substances can be quantified on the bradykinin receptor 1 (B1R) of the species human and rat with ectopically expressing cell lines (CHO K1 cells) and with the aid of a Ca^2+-sensitive dye (Fluo-4) using a fluorescent imaging plate reader (FLIPR). The indication in % activation is based on the Ca^2+ signal after addition of Lys-Des-Arg^9-bradykinin (0.5 nM) or Des-Arg^9-bradykinin (100 nM). Antagonists result in a suppression of the Ca^2+ influx following administration of the agonist. The % inhibition in comparison with the maximum achievable inhibition is indicated.
Functional Investigation on the Bradykinin 1 Receptor (B1R)
The agonistic or antagonistic action of substances can be determined on the bradykinin 1 receptor (B1R) of the human and rat species with the following assay. According to this assay, the Ca^2+ inflow through the channel is quantified with the aid of a Ca^2+-sensitive dyes (Fluo-4 type, Molecular Probes Europe BV, Leiden, The Netherlands) in a fluorescent imaging plate reader (FLIPR, Molecular Devices, Sunnyvale, USA).
Chinese Hamster Ovary cells (CHO K1 cells) which are stably transfected with the human B1R gene (hB1R cells, Euroscreen s.a., Gosselies, Belgium) or the B1R gene of the rat (rB1R cells, Axxam, Milan, Italy) are used. For functional investigations, these cells are plated-out on black 96-well plates with a clear base (BD Biosciences, Heidelberg, Germany) in a density of 20,000-25,000 cells/well. Overnight, the cells are incubated at 37° C. and 5% CO2 in culture medium (hB1R cells: Nutrient Mixture Ham's F12, Gibco Invitrogen GmbH, Karlsruhe, Germany; rB1R cells: D-MEM/F12, Gibco Invitrogen, Karlsruhe, Germany) with 10 vol. % FBS (foetal bovine serum, Gibco Invitrogen GmbH, Karlsruhe, Germany). On the following day, the cells are loaded with 2.13 μM Fluo-4 (Molecular Probes Europe BV, Leiden, The Netherlands) in HBSS buffer (Hank's buffered saline solution, Gibco Invitrogen GmbH, Karlsruhe, Germany) […] (Sigma-Aldrich, Taufkirchen, Germany) and 10 mM HEPES (Sigma-Aldrich, Taufkirchen, Germany) for 60 min at 37° C. The plates are subsequently washed 2× with HBSS buffer, and HBSS buffer which additionally contains 0.1% BSA (bovine serum albumin; Sigma-Aldrich, Taufkirchen, Germany), 5.6 mM glucose and 0.05% gelatine (Merck KGaA, Darmstadt, Germany) is added. After a further incubation of 20 minutes at room temperature, the plates are inserted into the FLIPR for Ca^2+ measurement. The Ca^2+-dependent fluorescence is measured here before and after addition of substances (λex=488 nm, λem=540 nm). The quantification is effected by measurement of the highest fluorescence intensity (FC, fluorescence counts) over time.
The FLIPR protocol comprises 2 additions of substance. Test substances (10 μM) are first pipetted on to the cells and the Ca^2+ inflow is compared with the control (hB1R: Lys-Des-Arg^9-bradykinin 0.5 nM; rB1R: Des-Arg^9-bradykinin 100 nM). The value in % activation based on the Ca^2+ signal after addition of Lys-Des-Arg^9-bradykinin (0.5 nM) or Des-Arg^9-bradykinin (100 nM) is obtained therefrom. After incubation for 10 minutes, 0.5 nM Lys-Des-Arg^9-bradykinin (hB1R) or 100 nM Des-Arg^9-bradykinin (rB1R) are applied and the inflow of Ca^2+ is likewise determined. Antagonists lead to a suppression of the Ca^2+ inflow. % inhibition compared with the maximum inhibition which can be achieved is calculated. The compounds show a good activity on the human and on the rat receptor. The following data were determined by way of example: […]

Regarding `COc1cc(C)c(S(=O)(=O)N(C)CCOCC(=O)N2CCC(O)(c3ccncc3)CC2)c(C)c1` [Example 88, N-{2-[2-(4-hydroxy-3,4,5,6-tetrahydro-2H-[4,4′]bipyridinyl-1-yl)-2-oxo-ethoxy]-ethyl}-4-methoxy-2,6,N-trimethyl-phenylsulfonamide], the inhibition (as a rule, the drop in the measured response relative to a control, in per cent) at 10 µM in test [1] amounted to 102%; in test [2], 103%.
Take `O=C(COCC1CCN(S(=O)(=O)c2c(Cl)cc(Cl)cc2Cl)C1)N1CCC(O)(c2ccc(Cl)cc2)CC1` (stereo not drawn) [Example 272, 1-(4-(4-chlorophenyl)-4-hydroxypiperidin-1-yl)-2-((1-(2,4,6-trichlorophenylsulfonyl)pyrrolidin-3-yl)methoxy)ethanone]: the figures for the inhibition at 10 µM in test [1] and in test [2] were 54.1% and 24.1%, respectively.
As for `O=C(CCC1CCCCN1S(=O)(=O)c1cccc(C(F)(F)F)c1)N1CCC(O)(c2ccc(Br)cc2)CC1` (stereo not drawn) [Example 123, 1-(4-(4-bromophenyl)-4-hydroxypiperidin-1-yl)-3-(1-(3-(trifluoromethyl)phenylsulfonyl)piperidin-2-yl)propan-1-one], the inhibition at 10 µM in test [1] was found to be 47.9%; in test [2], 54.7%.
As to `COc1cc(C)c(S(=O)(=O)N(C)CCCCC(=O)N2CCC(O)(c3cccnc3)CC2)c(C)c1` [Example 121, N-(5-(4-hydroxy-4-(pyridin-3-yl)piperidin-1-yl)-5-oxopentyl)-4-methoxy-N,2,6-trimethylphenylsulfonamide], the inhibition at 10 µM in test [1] is 100%; in test [2], 57.1%.
As for `COc1cc(C)c(S(=O)(=O)N(CCOCC(=O)N2CCC(O)(c3cccc(C(F)(F)F)c3)CC2)CC2CC2)c(C)c1C` [Example 208, N-(cyclopropylmethyl)-N-(2-(2-(4-hydroxy-4-(3-(trifluoromethyl)phenyl)-piperidin-1-yl)-2-oxoethoxy)ethyl)-4-methoxy-2,3,6-trimethylphenylsulfonamide], the inhibition at 10 µM in test [1] turned out to be 106%; in test [2] it was 100%.
For `COc1cc(C)c(S(=O)(=O)N(CCOCC(=O)N2CCC(O)(c3ccc(Cl)cc3)CC2)CC(C)C)c(C)c1C` [Example 209, N-(2-(2-(4-(4-chlorophenyl)-4-hydroxypiperidin-1-yl)-2-oxoethoxy)ethyl)-N-isobutyl-4-methoxy-2,3,6-trimethylphenylsulfonamide], the inhibition at 10 µM in test [1] is 105%; in test [2] it was 100%.
For the compound `COc1cc(C)c(S(=O)(=O)N2CCCC(COCC(=O)N3CCC(O)(c4ccc(Cl)cc4)CC3)C2)c(C)c1` (stereo not drawn) [Example 251, 1-(4-(4-chlorophenyl)-4-hydroxypiperidin-1-yl)-2-((1-(4-methoxy-2,6-dimethylphenylsulfonyl)piperidin-3-yl)methoxy)ethanone], the inhibition at 10 µM in test [1] amounted to 47.8%; in test [2] it was 92.9%.
On to `Cc1cc(S(=O)(=O)N2CCCCC2COCC(=O)N2CCC(O)(Cc3ccccc3)CC2)c(C)cc1Cl` (stereo not drawn) [Example 159, 1-(4-benzyl-4-hydroxypiperidin-1-yl)-2-((1-(4-chloro-2,5-dimethylphenylsulfonyl)piperidin-2-yl)methoxy)ethanone], for which the inhibition at 10 µM in test [1] was 38.5%; in test [2] it was 97%.
Take `Cc1cc(S(=O)(=O)N(C)CCCC(=O)N2CCC(O)(c3cccnc3)CC2)c(C)cc1Cl` [Example 113, 4-chloro-N-(4-(4-hydroxy-4-(pyridin-3-yl)piperidin-1-yl)-4-oxobutyl)-N,2,5-trimethylphenylsulfonamide hydrochloride]: the inhibition at 10 µM turned out to be 94.8% in test [1] and 51.1% in test [2].
In the case of `Cc1cc(S(=O)(=O)N2CCCCC2COCC(=O)N2CCC(O)(c3cccnc3)CC2)c(C)cc1Cl` (stereo not drawn) [Example 157, 2-((1-(4-chloro-2,5-dimethylphenylsulfonyl)piperidin-2-yl)methoxy)-1-(4-hydroxy-4-(pyridin-3-yl)piperidin-1-yl)ethanone], the inhibition at 10 µM in test [1] stood at 77.1%; in test [2], 101%.
For `COc1ccc(S(=O)(=O)N2Cc3ccccc3CC2COCC(=O)N2CCC(O)(Cc3ccccc3)CC2)cc1` (stereo not drawn) [Example 23, 1-(4-benzyl-4-hydroxy-piperidin-1-yl)-2-[2-(4-methoxy-phenylsulfonyl)-1,2,3,4-tetrahydro-isoquinolin-3-ylmethoxy]-ethanone] the same measures were 15.7% and 56.9%.
For `O=C(COCC1CCCN(S(=O)(=O)c2c(Cl)cc(Cl)cc2Cl)C1)N1CCC(O)(c2ccccc2)CC1` (stereo not drawn) [Example 255, 1-(4-hydroxy-4-phenylpiperidin-1-yl)-2-((1-(2,4,6-trichlorophenylsulfonyl)piperidin-3-yl)methoxy)ethanone] the same measures were 82.5% and 73.7%.
For `O=C(COCC1CCCN1S(=O)(=O)c1c(Cl)cc(C(F)(F)F)cc1Cl)N1CCC(O)(c2ccc(Br)cc2)CC1` (stereo not drawn) [Example 167, 1-(4-(4-bromophenyl)-4-hydroxypiperidin-1-yl)-2-((1-(2,6-dichloro-4-(trifluoromethyl)phenylsulfonyl)pyrrolidin-2-yl)methoxy)ethanone] the same measures were 41.5% and 104%.
With `CN(CCOCC(=O)N1CCC(O)(c2cccnc2)CC1)S(=O)(=O)c1c(Cl)cc(Cl)cc1Cl` [Example 2, 2,4,6-trichloro-N-{2-[2-(4′-hydroxy-3′,4′,5′,6′-tetrahydro-2′H-[3,4′]bipyridinyl-1′-yl)-2-oxo-ethoxy]-ethyl}-N-methyl-phenylsulfonamide], the inhibition at 10 µM in test [1] amounted to 104%; in test [2], 103%.
For the compound `CN(CCOCC(=O)N1CCC(O)(c2ccc(Cl)cc2)CC1)S(=O)(=O)c1cc(Cl)sc1Cl` [Example 260, 2,5-dichloro-N-(2-(2-(4-(4-chlorophenyl)-4-hydroxypiperidin-1-yl)-2-oxoethoxy)ethyl)-N-methylthiophene-3-sulfonamide], the results for the inhibition at 10 µM in test [1] and in test [2] were 73.1% and 91.1%, respectively.
